Data taken from PMC11302339, “A series of pyrimidine-based antifungals with anti-mold activity disrupt ER function in Aspergillus fumigatus” (Microbiology Spectrum, 2024).
In brackets after ≈: the same amount, converted by molar mass.

Columns and labels:
A. fumigatus = assay: MIC testing (CLSI broth dilution); assay type: cell-based; details: Aspergillus fumigatus, 48 h, strain CEA10; CLSI conditions, 48 h; read-out: MIC
Experimental: (§1) MICs were determined using Clinical and Laboratory Standards Institute guidelines ([48], [49]). All yeasts were cultured overnight in 3 mL YPD at 30°C, then washed twice in sterile phosphate-buffered saline (PBS). Twofold serial dilutions of each drug were prepared in RMPI + MOPS, then 1 × 10^3 cells were added per well. For mold species, wells were inoculated with 1.25 × 10^3 conidia per well. Plates were incubated at 37°C for 24 (Candida spp. and S. cerevisiae), 48 (Aspergillus spp., M. circinelloides, S. apiospermum, and L. prolificans), or 72 (C. neoformans and F. oxysporum) hours. S. cerevisiae BY4743 MICs were tested in YPD due to nutritional requirements of this strain. Each assay was performed in technical duplicate in at least two independent experiments performed on different days.

C. neoformans = assay: MIC testing (CLSI broth dilution); assay type: cell-based; details: Cryptococcus neoformans, 72 h, strain H99; CLSI conditions
Experimental: as §1

A. fumigatus biofilms = assay: A. fumigatus hyphal (biofilm) activity, resazurin; assay type: cell-based, Aspergillus fumigatus; details: conidia germinated 14 hours, escalating doses 24 hours
Experimental: To determine antifungal activity against A. fumigatus hyphae, a 96-well plate was inoculated with 1 × 10^3 conidia per well in 100 µL RPMI + MOPS with the edge wells filled with 200 µL sterile water to minimize edge effects. Plates were incubated at 37°C for 14 hours. A twofold dilution series of 1 or 7 was prepared in RPMI + MOPS at 2× concentration with 0.002% resazurin, then 100 µL of the drug was added to wells, and plates were incubated for an additional 24 hours. Fluorescence was measured with an excitation wavelength of 570 nm and an emission wavelength of 615 nm. Data are representative of two independent experiments performed in biological triplicate.

[1] = test system: A. fumigatus collagenase secretion; assay: Detection of secreted collagenase by azocoll; assay type: cell-based, Aspergillus fumigatus; details: treated with 1/2 MIC of each compound
Experimental: 1 × 10^6 CEA10 conidia/mL were cultured in 25 mL liquid GMM for 18 hours, then mycelia were washed with sterile ddH2O and transferred to 10% FBS-MM and treated with DMSO or the indicated concentration of drugs. Cultures were incubated at 37°C, 250 rpm, for an additional 24 hours, then the supernatant and biomass were collected. One milliliter of supernatant was spun at top speed for 5 min. Azocoll of <50 mesh (Sigma, Cat # 194932) was washed in buffer (50 mM Tris, pH 7.5, 1 mM NaCl, and 0.01% sodium azide) then resuspended to 5 mg/mL. Fifteen microliters of culture supernatant was added to the 2 mL azocoll solution and incubated at 37°C with shaking at 300 rpm for 3 hours in the dark. Reactions were spun at maximum speed for 3 min; 200 µL of supernatant was then transferred to a 96-well plate; and Abs 520 was measured. Biomass was lyophilized, and absorbance readings were normalized to milligram tissue. Data represent the mean and SEM of biological triplicates with technical duplicates except for compounds 5 and 7, which are biological duplicates due to the limited availability of the drug and the required culture size for this assay.

[2] = test system: A. fumigatus UPR-responsive genes; assay: A. fumigatus UPR gene expression (qRT-PCR); assay type: cell-based, Aspergillus fumigatus; details: single agent (16 µg/mL 1, or 1 mM DTT for 1 hour); normalized to DMSO
Experimental: We cultured 5 × 10^6 CEA10 conidia/mL in liquid GMM for 18 hours at 37°C with shaking at 250 rpm. Cultures were treated with either DMSO or 16 µg/mL 1 for 2 hours at 37°C, 250 rpm. Then 1 mM DTT or water was added, and cultures were incubated for an additional hour. Mycelia were collected with vacuum filtration and immediately frozen with liquid nitrogen. Tissue was lyophilized then ground with glass beads with a bead beater. RNA was extracted in 1 mL of TRIazole solution (Life Technologies, Cat # 15596026), then RNA was purified with two rounds of chloroform extraction. Five micrograms of RNA was treated with TURBO DNA-free kit (Invitrogen, Cat # AM1907) according to the manufacturer’s protocol. Five hundred nanograms of DNAse-treated RNA was used for cDNA synthesis with iScript cDNA synthesis kit (BioRad, Cat # 1708891), then cDNA was diluted 1:5 with ddH2O. Quantitative real time PCR analysis was performed in 20 µL reactions using 2 µL of dilute cDNA per reaction with iQ SYBR Green Supermix (BioRad). Samples were run on a BioRad CFX Connect using a three-step amplification with 54°C annealing temperature and melt curve analysis. Gene expression is normalized to tubA and tef1 expression. Gene expression was performed in biological triplicate. Primers to detect HacA splicing and targets were designed as previously described ([51]).

What does the source list for `OC1CC(c2cc(N3CCC(CCN4CCCC4)CC3)ncn2)C1` (centres unmarked) [compound 4]?
MIC (A. fumigatus): > 128 µg/mL; MIC (C. neoformans): 128 µg/mL (≈ 387 µM)

Which results are given for `COC1CCN(c2cc(C3CC(O)C3)ncn2)CC1` (centres unmarked) [compound 6]?
MIC (A. fumigatus): > 128 µg/mL; MIC (C. neoformans): > 128 µg/mL

For `OC1CC(c2cc(NCC3CCN(CCc4ccccc4)CC3)ncn2)C1` (centres unmarked) [compound 7], which MIC (A. fumigatus) is on record?
Its MIC is over 128 µg/mL.

What about the MIC (C. neoformans) of the same molecule?
The MIC was over 128 µg/mL.

And the “inhibition of hyphal growth” value (A. fumigatus biofilms)?
The value was “did not show inhibitory activity”.

What about the collagenase secretion [1] of the same molecule?
Its collagenase secretion is “modest but insignificant effect”.

What does the source list for `OC1CC(c2cc(N3CCC(Cc4ccc(F)cc4)CC3)ncn2)C1` (centres unmarked) [compound 3]?
MIC (A. fumigatus): 64 µg/mL (≈ 187 µM); MIC (C. neoformans): 4 µg/mL (≈ 11.7 µM); collagenase secretion [1]: inhibition of collagenase secretion was similar

What does the source list for `O[C@@H](CS)[C@@H](O)CS` (racemic) [DTT, 1,4-dithiothreitol, reference compound]?
increase in BipA expression [2]: 5 fold; increase in PdiA expression [2]: 2 fold; increase of spliced HacA (HacA^A) [2]: ~ 1.5 fold
